For the experiment, the system named is human macrophages. Briefly: Effect of calcitonin receptor agonism on cytokine (IL6) secretion in human macrophages, bead-based immunoassay. To be noted: human monocyte-derived macrophages, supernatant. It counts as cell-based. How it is done:
CD14+ monocytes were isolated from human PBMCs using negative magnetic bead selection (Stemcell Technologies) on day 0. Cells were cultured with M-CSF to differentiate monocytes to macrophages. On day 6, cells were treated with SUN-B-8155, a non-peptide calcitonin receptor agonist (Sigma-Aldrich), at concentrations 2 μM and 20 μM overnight. Supernatant was collected and bead-based immunoassays (Biolegend) were performed to detect changes in cytokine secretion.
Across multiple donors, secretion of the inflammatory cytokine, IL6, by macrophages was decreased after addition of small molecule agonist to calcitonin receptor, as shown in Table 13 below.

In the case of `CC(=Nc1ccccc1N)c1c(C)cc(=O)n(O)c1O` [SUN-B-8155], the “Fold change of IL6 (Normalized to Macs + LPS with no compound treatment)” value (2 μM overnight) was found to be 0.92 and the “Fold change of IL6 (Normalized to Macs + LPS with no compound treatment)” value (20 μM overnight) was determined as 0.09.
